Source: ChEMBL document CHEMBL1201862, “PubChem BioAssay data set” (2004)
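In this assay, cells in 96-well plates receive the compound at five concentrations for 48 hours. Endpoints are linearly interpolated between the surrounding concentrations. GI50: concentration for 50% inhibition of growth.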 Activity calls are given as the source filed them. Rule as the data show it: active = GI50 up to about 1.1 µM and inactive = higher.

How the values were obtained:
Experiment in all cases: growth of human tumour cells (NCI), 48 h
[1] = test system: MDA-MB-231
[2] = test system: NCI-H522
[3] = test system: MDA-N
[4] = test system: Hs-578T
[5] = test system: SF-295
[6] = test system: IGROV-1
[7] = test system: BT-549
[8] = test system: EKVX
[9] = test system: NCI/ADR-RES
[10] = test system: 786-0
[11] = test system: Malme-3M
[12] = test system: UACC-257
[13] = test system: SF-539
[14] = test system: HT-29
[15] = test system: UACC-62
[16] = test system: SNB-75
[17] = test system: OVCAR-3
[18] = test system: SK-OV-3
[19] = test system: A549
[20] = test system: SF-268
[21] = test system: MOLT-4
[22] = test system: U-251
[23] = test system: OVCAR-8
[24] = test system: HCT-116
[25] = test system: T47D
[26] = test system: ACHN
[27] = test system: SK-MEL-2
[28] = test system: HL-60
[29] = test system: K562
[30] = test system: HOP-62
[31] = test system: A498
[32] = test system: PC-3
[33] = test system: SW-620
[34] = test system: DU-145
[35] = test system: KM12
[36] = test system: OVCAR-5
[37] = test system: M14
[38] = test system: LOX IMVI
[39] = test system: OVCAR-4
[40] = test system: NCI-H226
[41] = test system: NCI-H460
[42] = test system: HCC 2998
[43] = test system: SNB-19
[44] = test system: COLO 205
[45] = test system: NCI-H23
[46] = test system: RPMI-8226
[47] = test system: HOP-92
[48] = test system: HCT-15
[49] = test system: RXF 393
[50] = test system: CAKI-1
[51] = test system: SK-MEL-28
[52] = test system: TK-10
[53] = test system: SN12C
[54] = test system: MDA-MB-435
[55] = test system: UO-31
[56] = test system: MCF7
[57] = test system: SK-MEL-5
[58] = test system: CCRF-CEM

CCOC(=O)/C=C(/C(=O)OCC)n1c(=O)c(C)cn(C2CC(N=[N+]=[N-])C(CO)O2)c1=O (centres undefined)
GI50 [1]: 20.7 µM (inactive)
GI50 [2]: 20.7 µM (inactive)
GI50 [3]: 43 µM (inactive)
GI50 [4]: 51.2 µM (inactive)
GI50 [5]: 79.6 µM (inactive)
GI50 [6]: 37.3 µM (inactive)
GI50 [7]: 48.6 µM (inactive)
GI50 [8]: 28.1 µM (inactive)
GI50 [9]: > 100 µM (inactive)
GI50 [10]: 25.4 µM (inactive)
GI50 [11]: 54.3 µM (inactive)
GI50 [12]: 22.1 µM (inactive)
GI50 [13]: 22.1 µM (inactive)
GI50 [14]: 35.7 µM (inactive)
GI50 [15]: 85.9 µM (inactive)
GI50 [16]: 56.9 µM (inactive)
GI50 [17]: 19.5 µM (inactive)
GI50 [18]: > 100 µM (inactive)
GI50 [19]: 33.9 µM (inactive)
GI50 [20]: 44.8 µM (inactive)
GI50 [21]: < 0.01 µM (active)
GI50 [22]: 18 µM (inactive)
GI50 [23]: 28.9 µM (inactive)
GI50 [24]: 37.2 µM (inactive)
GI50 [25]: 27.2 µM (inactive)
GI50 [26]: 32.9 µM (inactive)
GI50 [27]: 19.5 µM (inactive)
GI50 [28]: 2.31 µM (inactive)
GI50 [29]: 1.86 µM (inactive)
GI50 [30]: 59.7 µM (inactive)
GI50 [31]: 44.1 µM (inactive)
GI50 [32]: 13.5 µM (inactive)
GI50 [33]: 17 µM (inactive)
GI50 [34]: 43.5 µM (inactive)
GI50 [35]: 50.1 µM (inactive)
GI50 [36]: > 100 µM (inactive)
GI50 [37]: 26.4 µM (inactive)
GI50 [38]: 27.5 µM (inactive)
GI50 [39]: 32.6 µM (inactive)
GI50 [40]: 45.4 µM (inactive)
GI50 [41]: 47.4 µM (inactive)
GI50 [42]: 16.4 µM (inactive)
GI50 [43]: > 100 µM (inactive)
GI50 [44]: 14.5 µM (inactive)
GI50 [45]: 34 µM (inactive)
GI50 [46]: 17.4 µM (inactive)
GI50 [47]: 30.8 µM (inactive)
GI50 [48]: 29.7 µM
GI50 [49]: 24.2 µM (inactive)
GI50 [50]: 31.6 µM (inactive)
GI50 [51]: 29.4 µM (inactive)
GI50 [52]: 37.2 µM (inactive)
GI50 [53]: 37.2 µM (inactive)
GI50 [54]: 29.6 µM (inactive)
GI50 [55]: 46.6 µM (inactive)
GI50 [56]: 19.8 µM (inactive)

CC(C)(NC(=O)OCc1ccccc1)C(=O)OC(=O)C(C)(C)NC(=O)OCc1ccccc1
GI50 [1]: > 100 µM (inactive)
GI50 [2]: > 100 µM (inactive)
GI50 [57]: > 100 µM (inactive)
GI50 [3]: 23.6 µM (inactive)
GI50 [4]: > 100 µM (inactive)
GI50 [5]: > 100 µM (inactive)
GI50 [6]: > 100 µM (inactive)
GI50 [7]: > 100 µM (inactive)
GI50 [8]: > 100 µM (inactive)
GI50 [9]: > 100 µM (inactive)
GI50 [10]: > 100 µM (inactive)
GI50 [11]: > 100 µM (inactive)
GI50 [13]: > 100 µM (inactive)
GI50 [14]: > 100 µM (inactive)
GI50 [15]: 18.3 µM (inactive)
GI50 [16]: > 100 µM (inactive)
GI50 [17]: > 100 µM (inactive)
GI50 [18]: 54.2 µM (inactive)
GI50 [19]: > 100 µM (inactive)
GI50 [20]: 0.653 µM (active)
GI50 [21]: > 100 µM (inactive)
GI50 [22]: > 100 µM (inactive)
GI50 [23]: > 100 µM (inactive)
GI50 [24]: > 100 µM (inactive)
GI50 [25]: > 100 µM (inactive)
GI50 [26]: > 100 µM (inactive)
GI50 [27]: > 100 µM (inactive)
GI50 [58]: > 100 µM (inactive)
GI50 [29]: > 100 µM (inactive)
GI50 [30]: > 100 µM (inactive)
GI50 [31]: > 100 µM (inactive)
GI50 [32]: > 100 µM (inactive)
GI50 [33]: > 100 µM (inactive)
GI50 [34]: > 10 µM (inactive)
GI50 [35]: > 100 µM (inactive)
GI50 [36]: > 100 µM (inactive)
GI50 [37]: > 100 µM (inactive)
GI50 [38]: > 100 µM (inactive)
GI50 [39]: > 100 µM (inactive)
GI50 [40]: > 100 µM (inactive)
GI50 [41]: > 100 µM (inactive)
GI50 [43]: > 100 µM (inactive)
GI50 [44]: > 100 µM (inactive)
GI50 [45]: > 100 µM (inactive)
GI50 [46]: > 100 µM (inactive)
GI50 [47]: > 100 µM (inactive)
GI50 [48]: > 100 µM
GI50 [50]: > 100 µM (inactive)
GI50 [51]: > 100 µM (inactive)
GI50 [53]: > 100 µM (inactive)
GI50 [54]: > 100 µM (inactive)
GI50 [55]: > 100 µM (inactive)
GI50 [56]: > 100 µM (inactive)
